Experimental data from US20130165641A1, “6,11-BRIDGED BIARYL MACROLIDES” (Enanta Pharmaceuticals, Inc., priority 2007, published 2013).
Values after ≈ are worked out from the molar mass of the structure shown.

How the values were obtained:
[1] = tested on: H. influenzae; test: MIC by micro-dilution method, H. influenzae isolates; type: cell-based, Haemophilus influenzae
Method: (§1) Susceptibility tests can be used to quantitatively measure the in vitro activity of an antimicrobial agent against a given bacterial isolate. Compounds are tested for in vitro antibacterial activity by a micro-dilution method. Minimal Inhibitory Concentration (MIC) is determined in 96 well microtiter plates utilizing the appropriate broth medium for the observed bacterial isolates. […] The diluted compounds (2 μl/well) are then transferred into sterile, uninoculated medium (0.2 mL) by use of a 96 fixed tip-pipetting station. The inoculum for each bacterial strain is standardized to approximately 5×10^5 CFU/mL by optical comparison to a 0.5 McFarland turbidity standard. The plates are inoculated with 10 μl/well of adjusted bacterial inoculum. The 96 well plates are covered and incubated at 35+/−2° C. for 24 hours in ambient air environment. Following incubation, plate wells are visually examined by Optical Density measurement for the presence of growth (turbidity). The lowest concentration of an antimicrobial agent at which no visible growth occurs is defined as the MIC.
(§2) All in vitro testing follows the guidelines described in the Approved Standards M7-A7 protocol, published by the Clinical Laboratory Standards Institute (CLSI).

[2] = tested on: MRSA; test: MIC by micro-dilution method, MRSA isolates; type: cell-based, Staphylococcus aureus; conditions: compounds of Formula XVI; for MIC MRSA 7662: MRSA isolate 7662; for MIC MRSA 33591: MRSA isolate 33591
Method: as §1, §2

SMILES	MIC ([1]; H. influenzae 33929)	MIC ([1]; H. influenzae 49247)	MIC MRSA 7662 [2]	MIC MRSA 33591 [2]
CCC1OC(=O)C(C)C(=O)C(C)C(OC2OC(C)CC(N(C)C)C2O)C2(C)CC(C)C(=NC(C)=O)C(C)C(OCC(=NOCc3ccc(-n4nnnc4N)cc3)CO2)C1(C)O (stereo not drawn) [Example 47]	2 µg/mL (≈ 2.33 µM)			
CCC1OC(=O)C(C)C(=O)C(C)C(OC2OC(C)CC(N(C)C)C2O)C2(C)CC(C)C(=NC(C)=O)C(C)C(OCC(=NOCc3cnc(-c4cccc(N)n4)s3)CO2)C1(C)O (stereo not drawn) [Example 37]	4 µg/mL (≈ 4.58 µM)	2 µg/mL (≈ 2.29 µM)		
CCC1OC(=O)C(C)C(=O)C(C)C(OC2OC(C)CC(N(C)C)C2O)C2(C)CC(C)C(=O)C(C)C(OCC(=NOCc3ccc(-c4csc(N)n4)cn3)CO2)C1(C)O (stereo not drawn) [Example 41]	2 µg/mL (≈ 2.4 µM)	1 µg/mL (≈ 1.2 µM)		
CCC1OC(=O)C(C)C(=O)C(C)C(OC2OC(C)CC(N(C)C)C2O)C2(C)CC(C)C(=NC(C)=O)C(C)C(OCC(=NOCc3ccc(-c4nsc(N)n4)cc3)CO2)C1(C)O (stereo not drawn) [Example 48]	2 µg/mL (≈ 2.29 µM)			
CCC1OC(=O)C(C)C(=O)C(C)C(OC2OC(C)CC(N(C)C)C2O)C2(C)CC(C)C(=O)C(C)C(OCC(=NOCc3ccc(-c4coc(N)n4)nc3)CO2)C1(C)O (stereo not drawn) [Example 60]	2 µg/mL (≈ 2.45 µM)	2 µg/mL (≈ 2.45 µM)		
CCC1OC(=O)C(C)(F)C(=O)C(C)C(OC2OC(C)CC(N(C)C)C2O)C2(C)CC(C)C(=O)C(C)C(OCC(=NOCc3cnc(-c4nc(N)ns4)cn3)CO2)C1(C)O (stereo not drawn) [Example 64]	2 µg/mL (≈ 2.35 µM)	1 µg/mL (≈ 1.17 µM)		
CCC1OC(=O)C(C)C(=O)C(C)C(OC2OC(C)CC(N(C)C)C2O)C2(C)CC(C)C(=O)C(C)C(OCC(=NOCc3ccc(-c4nc(N)ns4)nc3)CO2)C1(C)O (stereo not drawn) [Example 61]	2 µg/mL (≈ 2.4 µM)	2 µg/mL (≈ 2.4 µM)		
CCC1OC(=O)C(C)C(=O)C(C)C(OC2OC(C)CC(N(C)C)C2O)C2(C)CC(C)C(=O)C(C)C(OCC(=NOCc3ncc(-c4cccc(N)n4)s3)CO2)C1(C)O (stereo not drawn) [Example 63]	2 µg/mL (≈ 2.4 µM)	1 µg/mL (≈ 1.2 µM)		
CCC1OC(=O)C(C)C(=O)C(C)C(OC2OC(C)CC(N(C)C)C2O)C2(C)CC(C)C(=O)C(C)C(OCC(=NOCc3csc(-c4cccc(N)n4)n3)CO2)C1(C)O (stereo not drawn) [Example 71]	2 µg/mL (≈ 2.4 µM)			
CCC1OC(=O)C(C)(F)C(=O)C(C)C(OC2OC(C)CC(N(C)C)C2O)C2(C)CC(C)C(=O)C(C)C(OCC(=NOCc3ccc(-c4nc(N)no4)cn3)CO2)C1(C)O (stereo not drawn) [Example 43]	2 µg/mL (≈ 2.4 µM)	2 µg/mL (≈ 2.4 µM)		
CCC1OC(=O)C(C)C(=O)C(C)C(OC2OC(C)CC(N(C)C)C2O)C2(C)CC(C)C(=O)C(C)C(OCC(=NOCc3ccc(-c4nc(N)no4)cc3)CO2)C1(C)O (stereo not drawn) [Example 42]	2 µg/mL (≈ 2.45 µM)	1 µg/mL (≈ 1.23 µM)		
CCC(=O)N=C1C(C)CC2(C)OCC(=NOCc3cnc(-c4cccc(N)n4)o3)COC(C1C)C(C)(O)C(CC)OC(=O)C(C)(F)C(=O)C(C)C2OC1OC(C)CC(N(C)C)C1O (stereo not drawn) [Example 65]	4 µg/mL (≈ 4.5 µM)	1 µg/mL (≈ 1.12 µM)		
CCC1OC(=O)C(C)(F)C(=O)C(C)C(OC2OC(C)CC(N(C)C)C2O)C2(C)CC(C)C(=O)C(C)C(OCC(=NOCc3ccc(-c4nc(N)cs4)cn3)CO2)C1(C)O (stereo not drawn) [Example 33]	4 µg/mL (≈ 4.71 µM)	2 µg/mL (≈ 2.35 µM)		
CCC1OC(=O)C(C)C(=O)C(C)C(OC2OC(C)CC(N(C)C)C2O)C2(C)CC(C)C(=O)C(C)C(OCC(=NOCc3ccc(-n4nnnc4N)cc3)CO2)C1(C)O (stereo not drawn) [Example 46]	2 µg/mL (≈ 2.45 µM)	2 µg/mL (≈ 2.45 µM)		
CCC1OC(=O)C(C)C(=O)C(C)C(OC2OC(C)CC(N(C)C)C2O)C2(C)CC(C)C(=O)C(C)C(OCC(=NOCc3ccc(-c4nc(N)cs4)cn3)CO2)C1(C)O (stereo not drawn) [Example 32]	2 µg/mL (≈ 2.4 µM)	2 µg/mL (≈ 2.4 µM)		
CCC1OC(=O)C(C)C(=O)C(C)C(OC2OC(C)CC(N(C)C)C2O)C2(C)CC(C)C(=O)C(C)C(OCC(=NOCc3ccc(-c4noc(N)n4)nc3)CO2)C1(C)O (stereo not drawn) [Example 62]	2 µg/mL (≈ 2.45 µM)	2 µg/mL (≈ 2.45 µM)		
CCC1OC(=O)C(C)(F)C(=O)C(C)C(OC2OC(C)CC(N(C)C)C2O)C2(C)CC(C)C(=O)C(C)C(OCC(=NOCc3ccc(-c4nc(N)ns4)cc3)CO2)C1(C)O (stereo not drawn) [Example 56]	2 µg/mL (≈ 2.35 µM)	2 µg/mL (≈ 2.35 µM)		

SMILES	MIC ([1]; H. influenzae 33929)	MIC ([1]; H. influenzae 49247)	MIC MRSA 7662 [2]	MIC MRSA 33591 [2]
CCC1OC(=O)C(C)C(=O)C(C)C(OC2OC(C)CC(N(C)C)C2O)C2(C)CC(C)C(=O)C(C)C(OCC(=NOCc3noc(-c4cccc(N)n4)n3)CO2)C1(C)O (stereo not drawn) [Example 54]	1 µg/mL (≈ 1.22 µM)	1 µg/mL (≈ 1.22 µM)		
CCC1OC(=O)C(C)C(=O)C(C)C(OC2OC(C)CC(N(C)C)C2O)C2(C)CC(C)C(=O)C(C)C(OCC(=NOCc3ccc(-c4coc(N)n4)cn3)CO2)C1(C)O (stereo not drawn) [Example 55]	2 µg/mL (≈ 2.45 µM)	1 µg/mL (≈ 1.23 µM)		
CCC1OC(=O)C(C)C(=O)C(C)C(OC2OC(C)CC(N(C)C)C2O)C2(C)CC(C)C(=O)C(C)C(OCC(=NOCc3ccn(-c4cccc(N)n4)n3)CO2)C1(C)O (stereo not drawn) [Example 58]	2 µg/mL (≈ 2.45 µM)	2 µg/mL (≈ 2.45 µM)		
CCC1OC(=O)C(C)C(=O)C(C)C(OC2OC(C)CC(N(C)C)C2O)C2(C)CC(C)C(=O)C(C)C(OCC(=NOCc3ncc(-c4cccc(N)n4)s3)CO2)C1(C)O (stereo not drawn) [Example 36]	2 µg/mL (≈ 2.4 µM)	2 µg/mL (≈ 2.4 µM)		
CCC1OC(=O)C(C)C(=O)C(C)C(OC2OC(C)CC(N(C)C)C2O)C2(C)CC(C)C(=O)C(C)C(OCC(=NOCc3ccc(-c4nc(N)ns4)cc3)CO2)C1(C)O (stereo not drawn) [Example 44]	2 µg/mL (≈ 2.4 µM)	1 µg/mL (≈ 1.2 µM)		
CCC1OC(=O)C(C)C(=O)C(C)C(OC2OC(C)CC(N(C)C)C2O)C2(C)CC(C)C(=NC(C)=O)C(C)C(OCC(=NOCc3coc(-c4cccc(N)n4)n3)CO2)C1(C)O (stereo not drawn) [Example 40]	2 µg/mL (≈ 2.33 µM)	2 µg/mL (≈ 2.33 µM)		
CCC1OC(=O)C(C)C(=O)C(C)C(OC2OC(C)CC(N(C)C)C2O)C2(C)CC(C)C(=O)C(C)C(OCC(=NOCc3nc(-c4cccc(N)n4)no3)CO2)C1(C)O (stereo not drawn) [Example 53]	1 µg/mL (≈ 1.22 µM)	1 µg/mL (≈ 1.22 µM)		
CCC1OC(=O)C(C)C(=O)C(C)C(OC2OC(C)CC(N(C)C)C2O)C2(C)CC(C)C(=O)C(C)C(OCC(=NOCc3cnc(-c4cccc(N)n4)s3)CO2)C1(C)O (stereo not drawn) [Example 34]	2 µg/mL (≈ 2.4 µM)	2 µg/mL (≈ 2.4 µM)		
CCC1OC(=O)C(C)C(=O)C(C)C(OC2OC(C)CC(N(C)C)C2O)C2(C)CC(C)C(=NC(C)=O)C(C)C(OCC(=NOCc3cnc(-c4cccc(N)n4)o3)CO2)C1(C)O (stereo not drawn) [Example 70]	2 µg/mL (≈ 2.33 µM)	2 µg/mL (≈ 2.33 µM)		
CCC1OC(=O)C(C)(F)C(=O)C(C)C(OC2OC(C)CC(N(C)C)C2O)C2(C)CC(C)C(=NC(C)=O)C(C)C(OCC(=NOCc3ccc(-n4ccc(N)n4)cc3)CO2)C1(C)O (stereo not drawn) [Example 81]			4 µg/mL (≈ 4.58 µM)	4 µg/mL (≈ 4.58 µM)
CCC1OC(=O)C(C)(F)C(=O)C(C)C(OC2OC(C)CC(N(C)C)C2O)C2(C)CC(C)C(=NC(=O)C(C)C)C(C)C(OCC(=NOCc3ccc(-n4ccc(N)n4)cn3)CO2)C1(C)O (stereo not drawn) [Example 87]			2 µg/mL (≈ 2.22 µM)	4 µg/mL (≈ 4.43 µM)
CCC(=O)N=C1[C@H](C)C[C@@]2(C)OC/C(=N/OCc3ccc(-c4nc(N)cs4)nc3)CO[C@H]([C@H]1C)[C@](C)(O)[C@@H](CC)OC(=O)[C@@](C)(F)C(=O)[C@H](C)[C@H]2O[C@@H]1O[C@H](C)C[C@H](N(C)C)[C@H]1O [Example 128]			4.00 µg/mL (≈ 4.42 µM)	8.00 µg/mL (≈ 8.84 µM)
CC[C@H]1OC(=O)[C@@](C)(F)C(=O)[C@H](C)[C@@H](O[C@@H]2O[C@H](C)C[C@H](N(C)C)[C@H]2O)[C@@]2(C)C[C@@H](C)C(=NC(=O)C(C)C)[C@H](C)[C@@H](OC/C(=N\OCc3ccc(-n4ccc(N)n4)cc3Cl)CO2)[C@]1(C)O [Example 116]			4 µg/mL (≈ 4.28 µM)	4 µg/mL (≈ 4.28 µM)
CCC1OC(=O)C(C)(F)C(=O)C(C)C(OC2OC(C)CC(N(C)C)C2O)C2(C)CC(C)C(=NC(=O)C3CC3)C(C)C(OCC(=NOCc3ccc(-n4ccc(N)n4)cn3)CO2)C1(C)O (stereo not drawn) [Example 94]			8 µg/mL (≈ 8.89 µM)	8 µg/mL (≈ 8.89 µM)
CCC(=O)N=C1[C@H](C)C[C@@]2(C)OC/C(=N/OCc3ccc(-c4nccc(N)n4)cn3)CO[C@H]([C@H]1C)[C@](C)(O)[C@@H](CC)OC(=O)[C@@](C)(F)C(=O)[C@H](C)[C@H]2O[C@@H]1O[C@H](C)C[C@H](N(C)C)[C@H]1O [Example 113]			4 µg/mL (≈ 4.44 µM)	8 µg/mL (≈ 8.89 µM)
CC[C@H]1OC(=O)[C@@](C)(F)C(=O)[C@H](C)[C@@H](O[C@@H]2O[C@H](C)C[C@H](N(C)C)[C@H]2O)[C@@]2(C)C[C@@H](C)C(=NC(C)=O)[C@H](C)[C@@H](OC/C(=N\OCc3ccc(-c4nc(N)cs4)cn3)CO2)[C@]1(C)O [Example 101]			2 µg/mL (≈ 2.24 µM)	4 µg/mL (≈ 4.49 µM)
